According to patent publication US8563556B2, “Crystalline forms and two solvated forms of 4-amino-5-fluoro-3-[5-(4-methylpiperazin-1-yl)-1H-benzimidazol-2-yl]quinolin-2(1H)-one lactic acid salts” (Novartis AG, priority 2008, dated 2013):
Structures can show the parent of a compound that is named as a salt. Where two headings read alike, the source gives them in different places.

How the values were obtained:
[1] = Heat of solution in water at 25° C.; format: physicochemical
[2] = Solubility of crystalline forms in solvents; format: physicochemical; details: for Solubility, Butanol: solvent butanol

SMILES | Heat of solution in water (endothermic) [1] [kcal/mol] | Solubility, Acetone ([2]; solvent acetone, temperature not given) [µg/mL] | Solubility, Butanol ([2]; temperature not given) [µg/mL] | Solubility, Ethanol ([2]; solvent ethanol, temperature not given) [µg/mL] | Solubility, Isopropanol ([2]; solvent isopropanol, temperature not given) [µg/mL] | Solubility, Water ([2]; solvent water, temperature not given) [µg/mL] | Heat of solution in water (endothermic) ([1]; listed as Form B) [kcal/mol] | solubility ([2]; acetone, organic solvent or mixture, solvent acetone, temperature not given, read-out: Solubility, Acetone) [µg/mL] | solubility ([2]; ethanol, organic solvent or mixture, solvent ethanol, temperature not given, read-out: Solubility, Ethanol) [µg/mL] | solubility ([2]; isopropanol, organic solvent or mixture, solvent isopropanol, temperature not given, read-out: Solubility, Isopropanol) [µg/mL] | solubility ([2]; water, solvent water, temperature not given, read-out: Solubility, Water) [µg/mL] | solubility ([2]; 0.1 N HCl, 25 °C, simulated gastric fluid, HCl 0.1N, 25° C., read-out: Solubility at 25° C., HCl 0.1N) [µg/mL] | solubility ([2]; ethanol, 25 °C, organic solvent or mixture, ethanol, 25° C., read-out: Solubility at 25° C., ethanol) [µg/mL] | Solubility at 25° C., water ([2]; water, 25° C.) [µg/mL]
CN1CCN(c2ccc3nc(-c4c(N)c5c(F)cccc5[nH]c4=O)[nH]c3c2)CC1 [Anhydrous form A, 4-amino-5-fluoro-3-[5-(4-methylpiperazin-1-yl)-1H-benzimidazol-2-yl]quinolin-2(1H)-one lactic acid salt] | 1.1 | 840 | 950 | 840 | 160 | 107000 |  |  |  |  |  |  |  | 
CN1CCN(c2ccc3nc(-c4c(N)c5c(F)cccc5[nH]c4=O)[nH]c3c2)CC1 [Anhydrous form II, 4-Amino-5-fluoro-3-[5-(4-methylpiperazin-1-yl)-1H-benzimidazol-2-yl]quinolin-2(1H)-one lactate anhydrous form II] |  |  | 340 |  |  |  | 2.2 | 510 | 710 | 80 | 68000 |  |  | 
CN1CCN(c2ccc3nc(-c4c(N)c5c(F)cccc5[nH]c4=O)[nH]c3c2)CC1 [hemi-pentahydrate, 4-Amino-5-fluoro-3-[5-(4-methylpiperazin-1-yl)-1H-benzimidazol-2-yl]quinolin-2(1H)-one lactate hemi-pentahydrate] | 7.17 |  |  |  |  |  |  |  |  |  |  | 55000 | 2000 | 6200
